According to PMC6856721, “Discovery of a Novel DNA Gyrase-Targeting Antibiotic through the Chemical Perturbation of Streptomyces venezuelae Sporulation” (Cell Chemical Biology, 2019):
In brackets after ≈: the same amount, converted by molar mass. Several values for one entry are separate records, joined by “and”; a condition that tells them apart may be missing. Equal entries are not always repeated. Where two headings read alike, the source gives them in different places.

Key:
[1] = system: S. venezuelae; assay: S. venezuelae sporulation inhibition disk diffusion assay (whi phenotype, SEM); assay type: cell-based, Streptomyces venezuelae; conditions: for Sporulation inhibition: disk with 10 μL antibiotic, 48 h, white halo in sub-MIC region; for Aerial hyphae septation by SEM: lawn immediately adjacent to the zone of inhibition
Description: A lawn of S. venezuelae spores was plated on MYM agar plates and allowed to dry. For the initial screen, 2 μL of each molecule at 2.5 mM was spotted directly to the agar plate. For known antibiotics or follow-up screening, 10 μL of molecule was added to a drug disk, allowed to dry, and placed on the agar plate. The S. venezuelae plate was incubated at 30°C for 48 hours and photographed. The whi phenotype was identified by eye. Hits were selected based on their ability to induce a whi phenotype at sub-inhibitory concentrations and scored by eye on the size of the induced whi region and the zone of inhibition.
To prepare samples for SEM, the agar plate containing a lawn of S. venezuelae was cut at the edge of the zone of inhibition and fixed with 2% glutaraldehyde in 0.1% sodium cacodylate buffer followed by sputter coating with gold. Images were obtained and processed using a FEI XL30 ESEM. The contrast of the resulting images was adjusted to highlight the appearance or lack of spore formation.

[2] = molecular target: T1, S. aureus gyrase (Staphylococcus aureus, UniProt P0A0K8+P20831); assay: S. aureus gyrase relaxation; assay type: biochemical; conditions: ATP-independent
T1 construct: purchased Inspiralis Inc. SAS4001 (supercoiling kit); SAGC001 (cleavage assay kit)
Description: 1 U of gyrase was incubated with 0.5 μg of supercoiled pBR322 DNA in a 30 μL reaction at 37°C for 60 minutes under the following conditions: 50 mM Tris.HCl (pH 7.5), 5 mM MgCl2,5 mM DTT, 350 mM potassium glutamate, and 0.05 mg/mL albumin. Each reaction was stopped by the addition of 30 μL chloroform/iso-amyl alcohol (24:1) and 20 μl Stop Dye, before being loaded on a 1.0% TAE agarose gel. Gels run at 80 V for 2 hours.

[3] = system: HEK293 cells; assay: Toxicity against human HEK293 cells; assay type: cell-based
Source text: The experimental model that we have employed is Staphyloccocus aureus strain ATCC 29213. We have used the cell line HEK293, as a control for EN-7 toxicity against human cells.

[4] = system: E. coli; assay: Minimum inhibitory concentration, broth dilution, E. coli strains; assay type: cell-based, Escherichia coli
Description: (§1) The minimum inhibitory concentration (MIC) defines the lowest concentration of a compound required to inhibit the growth. A single colony of the bacteria being tested was grown in 5 mL of liquid growth media. Following overnight growth, the culture was diluted 100-fold into fresh media and incubated at 37°C until the cells reached mid-log phase (OD600 of 0.3 to 0.5). The cells were diluted 10,000-fold into fresh media and the MIC determined for each of the strains by adding 2 μL of the diluted compound to 198 μL of the diluted cells in a clear 96-well plate. The plates were incubated at 37°C overnight and the optical density at 600 nm was measured for each well. All MIC assays were performed in triplicate.

[5] = molecular target: T1, S. aureus gyrase; assay: S. aureus gyrase supercoiling; assay type: biochemical; conditions: purified S. aureus gyrase, wild-type
Description: (§2) 1 U of DNA gyrase was incubated with 0.5 μg of relaxed pBR322 DNA in a 30 μl reaction at 37°C for 30 minutes under the following conditions: 35 mM Tris.HCl (pH 7.5), 24 mM KCl, 4 mM MgCl2, 2 mM DTT, 1.8 mM Spermidine, 1 mM ATP, 6.5% (w/v) glycerol and 0.1 mg/mL BSA. Each reaction was stopped by the addition of 30 μl chloroform/iso-amyl alcohol (24:1) and 20 μl Stop Dye (40% sucrose, 100 mM Tris.HCl (pH 7.5), 10 mM EDTA, 0.5 μg/mL bromophenol blue), before being loaded on a 1.0% TAE (Tris.acetate […], EDTA […]) agarose gel. Gels run at 90 V for 2 hours. Bands were visualized by ethidium staining for 20 minutes and destaining in water for 20 minutes. Gels were scanned using a gel documentation system (GeneGenius, Syngene, Cambridge, UK) and percent inhibition levels obtained with gel scanning software (GeneTools, Syngene, Cambridge,UK).
(§3) As for E. coli gyrase except assay conditions were: 40 mM HEPES. KOH (pH 7.6), 10 mM magnesium acetate, 10 mM DTT, 2 mM ATP, 500 mM potassium glutamate, and 0.05 mg/mL BSA. Gels run at 80 V for 3 hours.

[6] = molecular target: T2, S. aureus gyrase GyrA S84L (Staphylococcus aureus, UniProt P0A0K8+P20831, S84L); assay: Supercoiling inhibition of S. aureus gyrase mutant GyrA S84L; assay type: biochemical
T2 construct: purchased Inspiralis Inc. SAAS84L01
Description: as §2, §3

[7] = system: S. aureus; assay: Minimum inhibitory concentration, broth dilution, S. aureus strains; assay type: cell-based, Staphylococcus aureus
Description: as §1

[8] = molecular target: T3, S. aureus topoisomerase IV (Staphylococcus aureus, UniProt P0C1S7+P0C1U9); assay: S. aureus topoisomerase IV decatenation; assay type: biochemical; conditions: purified S. aureus topoisomerase IV; no activity up to; read-out: IC50, topoisomerase IV-catalyzed decatenation
T3 construct: purchased Inspiralis Inc. SAD4001
Description: 1 U of topoisomerase IV was incubated with 200 ng kDNA DNA in a 30 μl reaction at 37 C for 30 minutes under the following conditions: 50 mM HEPES-KOH (pH 7.6), 100 mM potassium glutamate, 10 mM magnesium acetate, 10 mM dithiothreitol, 1 mM ATP and 50 μg/mL BSA. Each reaction was stopped by the addition of 30 μl chloroform/iso-amyl alcohol (24:1) and 20 μl Stop Dye, before being loaded on a 1.0% TAE agarose gel. Gels run at 90 V for 2 hours.
As for E coli topoisomerase IV except assay conditions were: 50 mM Tris-HCl (7.5), 5 mM MgCl2, 5 mM DTT, 1.5 mM ATP, 350 mM potassium glutamate and 0.05 mg/mL BSA. Gels run at 80 V for 2 hours.

[9] = molecular target: T4, E. coli gyrase (Escherichia coli, UniProt P0AES4+P0AES6); assay: E. coli gyrase supercoiling; assay type: biochemical; conditions: purified E. coli gyrase
T4 construct: purchased Inspiralis Inc. K0001
Description: as §2

[10] = molecular target: T1, S. aureus gyrase; assay: S. aureus gyrase cleavage; assay type: biochemical
Description: 1 U of gyrase was incubated with 0.5 μg of supercoiled pBR322 DNA in a 30 μL reaction at 37 C for 30 minutes under the following conditions: 40 mM HEPES. KOH (pH 7.6), 10 mM magnesium acetate, 10 mM DTT, 100 mM potassium glutamate and 0.05 mg/mL albumin. 0.2 % SDS and 0.1 mg/mL Proteinase K were added before a further incubation at 37°C for 30 minutes. Each reaction was stopped by the addition of 30 μL chloroform/iso-amyl alcohol (24:1) and 20 μL Stop Dye, before being loaded on a 1.0% TAE agarose gel. Gels run at 80 V for 2 hours.

With `N#CC(C#N)=NNc1cccc(Cl)c1` [CCCP, carbonyl cyanide m-chlorophenyl hydrazone] the Sporulation inhibition [1] was “−”.
In the case of `O=C(/C=C/c1cccc2cccnc12)NNC(=O)c1cc(-c2ccccc2)on1` [EN-7], the “Inhibition of gyrase-induced DNA relaxation” value [2] is reported as “inhibit”, the IC50 ([2]; read-out: IC50, gyrase-induced relaxation) is reported as 100 to 500 nM and the “Toxicity to human HEK293 cells” value [3] is reported as “no toxicity”. For the same molecule, the MIC ([4]; E. coli BW25113, read-out: MIC) was over 64 µM, the MIC ([4]; E. coli MC1061, read-out: MIC) was over 64 µM and the MIC ([4]; Escherichia coli, BW25113, E. coli BW25113, read-out: MIC) was over 64 µM. The MIC ([4]; Escherichia coli, BW25113, E. coli BW25113 ΔtolC ΔbamB, outer-membrane and efflux-deficient) was 1 µM (≈ 0.384 µg/mL), the MIC ([4]; Escherichia coli, E. coli MC1061, read-out: MIC) was over 64 µM and the “Growth inhibition (zone of inhibition)” value ([1]; filter disk, 10 μL of 2.5 mM) was “significant zone of inhibition”. For the same molecule, the “Sporulation inhibition below the MIC for growth” value ([1]; filter disk, 10 μL of 2.5 mM) was “striking band of inhibited sporulation”, the IC50 [5] was 85 nM and the IC50 [6] was 9960 nM. For the same molecule, the “Increase of IC50 relative to the wild-type enzyme” value ([6]; GyrA S84L vs wild-type S. aureus gyrase, supercoiling inhibition) was > 100 fold and ~100 fold, the “Susceptibility of gyrase mutant GyrA S84L” value ([6]; S. aureus gyrase) was “less susceptible” and the MIC ([7]; S. aureus clinical strain C0018, read-out: MIC) was over 128 µM. For the same molecule, the MIC ([7]; S. aureus clinical strain C0032, read-out: MIC) was over 128 µM, the MIC ([7]; S. aureus clinical strain C0117, read-out: MIC) was over 128 µM and the MIC ([7]; Staphylococcus aureus, ATCC29213, S. aureus ATCC 29213 (wild-type, parent strain), read-out: MIC) was 1 µM. For the same molecule, the MIC ([7]; Staphylococcus aureus, ATCC29213, nine EN-7-resistant S. aureus ATCC 29213 mutants (mut-1 to mut-9), 16 μM highest concentration tested) was over 16 µM, the MIC ([7]; Staphylococcus aureus, ATCC29213, three S. aureus ATCC 29213 GyrB K417E allelic exchange strains) was over 128 µM and the MIC ([7]; Staphylococcus aureus, ATCC 29213 / ATCC 33591, S. aureus three laboratory strains (ATCC 29213, TCH1516, ATCC 33591) and four clinical strains (C0017, C0024, C0023, C0019), read-out: MIC) was 0.4 µg/mL. It also gave an MIC ([7]; Staphylococcus aureus, ATCC33519, S. aureus ATCC 33519, read-out: MIC) of 1 µM, an MIC ([7]; Staphylococcus aureus, S. aureus TCH 1516, read-out: MIC) of 1 µM and an MIC ([7]; Staphylococcus aureus, S. aureus clinical strain C0017, read-out: MIC) of 1 µM. It also gave an MIC ([7]; Staphylococcus aureus, S. aureus clinical strain C0018, read-out: MIC) of over 128 µM, an MIC ([7]; Staphylococcus aureus, S. aureus clinical strain C0019, read-out: MIC) of 1 µM and an MIC ([7]; Staphylococcus aureus, S. aureus clinical strain C0023, read-out: MIC) of 1 µM. It also gave an MIC ([7]; Staphylococcus aureus, S. aureus clinical strain C0024, read-out: MIC) of 1 µM, an MIC ([7]; Staphylococcus aureus, S. aureus clinical strain C0032, read-out: MIC) of over 128 µM and an MIC ([7]; Staphylococcus aureus, S. aureus clinical strain C0112, read-out: MIC) of 4 µM. The MIC ([7]; Staphylococcus aureus, S. aureus clinical strain C0117, read-out: MIC) was over 128 µM, the IC50 [8] was over 100000 nM and the IC50 [9] was 1750 nM. The “Occurrence of DNA nicking” value ([10]; S. aureus gyrase, pBR322) was “does increase the occurrence of DNA nicking”, the “Stabilization of gyrase-DNA double-stranded cleavage complex” value ([10]; S. aureus gyrase, pBR322) was “does not stabilize” and the “Effect on ciprofloxacin-induced formation of the double-stranded cleavage complex” value ([10]; co-treatment with ciprofloxacin) was “does not prevent”.
In the case of `NC[C@H]1O[C@H](O[C@H]2[C@H](O)[C@@H](O[C@H]3O[C@H](CO)[C@@H](O)[C@H](N)[C@H]3O)[C@H](N)C[C@@H]2N)[C@H](O)[C@@H](O)[C@@H]1O` [Kanamycin, kanamycin], the Sporulation inhibition [1] is reported as “−” and the “Aerial hyphae septation by SEM” value [1] is reported as “septated aerial hyphae”.
`CO[C@@]12[C@H](COC(N)=O)C3=C(C(=O)C(C)=C(N)C3=O)N1C[C@@H]1N[C@@H]12` [Mitomycin C, mitomycin C] was tested, and the Sporulation inhibition [1] was “+” and the “Aerial hyphae septation by SEM” value [1] was “do not show any aerial hyphae septation”.
For `CO[C@H]1/C=C/O[C@@]2(C)Oc3c(C)c(O)c4c(O)c(c(/C=N/N5CCN(C)CC5)c(O)c4c3C2=O)NC(=O)/C(C)=C\C=C\[C@H](C)[C@H](O)[C@@H](C)[C@@H](O)[C@@H](C)[C@H](OC(C)=O)[C@@H]1C` [Rifampicin, rifampicin], the Sporulation inhibition [1] was “−” and the “Aerial hyphae septation by SEM” value [1] was “septated aerial hyphae”.
With `Oc1cc(Cl)ccc1Oc1ccc(Cl)cc1Cl` [Triclosan, triclosan] the Sporulation inhibition [1] was “−”.
